Assay results published in patent US20220348592A1, “FUSED HETEROCYCLIC DERIVATIVES” (Janssen Sciences Ireland Unlimited Company, priority 2019, published 2022).

Tests used:
[1] = Cytotoxicity in HepG2.117 cells, ATPlite Luminescence Assay; type: cell-based, human; conditions: human, incubated for 3 days, mean value, read-out: TOX-HepG2.117 CC50 (μM, mean value)
Procedure: Cytotoxicity of the compounds was tested using HepG2 or HepG2.117 cells, incubated for 3 days in the presence of compounds. The viability of the cells was assessed using the PERKIN ELMER ATPlite Luminescence Assay System.”

HBV = test: Anti-HBV activity: intracellular HBV DNA by real-time PCR in HepG2.117 cell line; type: cell-based, Hepatitis B virus; conditions: Hepatitis B virus, 72 h; HepG2.117 cells, 3 days of treatment, intracellular HBV DNA by real-time PCR, mean value; read-out: HBV-AVE-HepG2.117 EC50 (μM, mean value)
Procedure: The anti HBV activity was measured using the HepG2.117 cell line, a stable, inducibly HBV producing cell line, which replicates HBV in the absence of doxicycline (Tet-off system). The HepG2 cell line is available from ATCC® under number HB-8065. Transfection of the HepG2 cell line can be as described in Sun and Nassal 2006 Journal of Hepatology 45 (2006) 636-645 “Stable HepG2- and Huh7-based human hepatoma cell lines for efficient regulated expression of infectious hepatitis B virus”.
For the antiviral assay, HBV replication was induced, followed by a treatment with serially diluted compound in 96-well plates. After 3 days of treatment, the antiviral activity was determined by quantification of intracellular HBV DNA using real-time PCR and an HBV specific primer set and probe.

SMILES | CC50 at 3 days [1] [µM] | EC50 (HBV) [µM]
C[C@@H]1Cc2nn3c(c2CN1C(=O)c1ccc(Cl)c(Cl)c1)C(=O)N(Cc1ccc(C#N)cc1OC(F)F)CC3 [Example C203] | > 50 | 0.09
O=C(c1ccc(Cl)c(Cl)c1)N1CCc2nn3c(c2C1)C(=O)N(Cc1ccc(OC(F)F)cc1)CC3 [Compound 10, 2-(3,4-Dichlorobenzoyl)-9-{[4-(difluoromethoxy)phenyl]methyl}-1,2,3,4,8,9-hexahydropyrido-[4′,3′:3,4]pyrazolo[1,5-a]pyrazin-10(7H)-one] | 7.26 | 0.062
Cc1cc(CN2CCn3nc4c(c3C2=O)CN(C(=O)c2ccc(Cl)c(Cl)c2)[C@H](C)C4)no1 [Example C141] | > 50 | 0.056
COc1ccc(CN2CCn3nc4c(c3C2=O)CN(C(=O)c2ccc(C)c(F)c2)CC4)cc1 [Example C53] | 20.4 | 1.08
C[C@@H]1Cc2nn3c(c2CN1C(=O)c1ccc(Cl)c(Cl)c1)C(=O)N(Cc1coc(C(F)(F)F)n1)CC3 [Example C172] | > 50 | 0.19
COc1ccc(CN2CCn3nc4c(c3C2=O)CN(C(=O)c2ccc(Cl)c(C(F)F)c2)CC4)cc1 [Example C57] | 18.9 | 0.04
Cc1nonc1CN1CCn2nc3c(c2C1=O)CN(C(=O)c1ccc(Cl)c(Cl)c1)[C@H](C)C3 [Example C146] | > 50 | 1.79
C[C@@H]1Cc2nn3c(c2CN1C(=O)c1cc2c(Cl)cccc2[nH]1)C(=O)N(Cc1ccccn1)CC3 [Example C96] | 10.7 | 0.025
C[C@@H]1Cc2nn3c(c2CN1C(=O)c1cc2c(F)c(F)ccc2[nH]1)C(=O)N(Cc1ccccn1)CC3 [Example C101] | 8.95 | 0.036
C[C@@H]1Cc2nn3c(c2CN1C(=O)c1cc2c(F)cc(F)cc2[nH]1)C(=O)N(Cc1ccccn1)CC3 [Example C110] | 16 | 0.017
C[C@@H]1Cc2nn3c(c2CN1C(=O)c1ccc(Cl)c(Cl)c1)C(=O)N(Cc1ccc(OC(F)F)cn1)CC3 [Example C69] | 14.5 | 0.063
COc1ccc(CN2CCn3nc4c(c3C2=O)CN(C(=O)c2ccc(F)c(C#N)c2)CC4)cc1 [Example C52] | > 50 | 0.995
COc1ccccc1C(C)N1CCn2nc3c(c2C1=O)CN(C(=O)c1ccc(Cl)c(Cl)c1)[C@H](C)C3 (stereo partly shown) [Example C227] | 37.3 | 0.129
CC(c1nnnn1C)N1CCn2nc3c(c2C1=O)CN(C(=O)c1ccc(Cl)c(Cl)c1)[C@H](C)C3 (stereo partly shown) [Example C247] | > 50 | > 2.5
Cc1ncoc1CN1CCn2nc3c(c2C1=O)CN(C(=O)c1ccc(Cl)c(Cl)c1)[C@H](C)C3 [Example C214] | > 50 | 0.074
Cc1cc(CN2CCn3nc4c(c3C2=O)CN(C(=O)c2ccc(Cl)c(Cl)c2)[C@H](C)C4)on1 [Example C145] | > 50 | 0.106
C[C@@H]1Cc2nn3c(c2CN1C(=O)c1ccc(Cl)c(Cl)c1)C(=O)N([C@@H](C)c1ncn(S(=O)(=O)N(C)C)n1)CC3 [Compound 29, 3-{(1S)-1-[(3R)-2-(3,4-Dichlorobenzoyl)-3-methyl-10-oxo-1,3,4,7,8,10-hexahydropyrido-[4′,3′:3,4]pyrazolo[1,5-a]pyrazin-9(2H)-yl]ethyl}-N,N-dimethyl-1H-1,2,4-triazole-1-sulfonamide] | > 50 | 0.741
CC(c1ccncc1)N1CCn2nc3c(c2C1=O)CN(C(=O)c1ccc(Cl)c(Cl)c1)[C@H](C)C3 (stereo partly shown) [Example C250] | > 12.5 | 0.033
C[C@@H]1Cc2nn3c(c2CN1C(=O)c1ccc(Cl)c(Cl)c1)C(=O)N([C@H](C)c1ccccc1C(F)(F)F)CC3 (relative stereo) [C123*S] | 19.2 | 0.517
Cc1cn(C)c(CN2CCn3nc4c(c3C2=O)CN(C(=O)c2ccc(Cl)c(Cl)c2)[C@H](C)C4)n1 [Example C173] | > 50 | 0.41
C[C@@H]1Cc2nn3c(c2CN1C(=O)c1ccc(Cl)c(Cl)c1)C(=O)N(Cc1nccn1C(F)F)CC3 [Example C133] | > 50 | 0.332

SMILES | CC50 at 3 days [1] [µM] | EC50 (HBV) [µM]
C[C@@H]1Cc2nn3c(c2CN1C(=O)c1ccc(Cl)c(Cl)c1)C(=O)N(Cc1ccn(C)n1)CC3 [Compound 19, (3R)-2-(3,4-Dichlorobenzoyl)-3-methyl-9-[(1-methyl-1H-pyrazol-3-yl)methyl]-1,2,3,4,8,9-hexahydropyrido[4′,3′:3,4]pyrazolo[1,5-a]pyrazin-10(7H)-one] | > 50 | 0.079
C[C@@H]1Cc2nn3c(c2CN1C(=O)c1ccc(Cl)c(Cl)c1)C(=O)N(Cc1ccccc1OC(F)(F)F)CC3 [Example C174] | 15.3 | 0.18
C[C@@H]1Cc2nn3c(c2CN1C(=O)c1ccc(Cl)c(Cl)c1)C(=O)N(Cc1cnccn1)CC3 [Example C65] | > 50 | 0.299
O=C(c1ccc(Cl)cc1F)N1CCc2nn3c(c2C1)C(=O)N(Cc1ccccn1)CC3 [Example C72] | > 50 | > 2.5
Cc1nc(C)c(CN2CCn3nc4c(c3C2=O)CN(C(=O)c2ccc(Cl)c(Cl)c2)[C@H](C)C4)o1 [Example C149] | > 50 | 0.059
O=C(c1ccc(Cl)c(Cl)c1)N1CCc2nn3c(c2C1)C(=O)N(Cc1c[nH]c2ccccc12)CC3 [Compound 8, 2-(3,4-Dichlorobenzoyl)-9-[(1H-indol-3-yl)methyl]-1,2,3,4,8,9-hexahydropyrido[4′,3′:3,4]-pyrazolo[1,5-a]pyrazin-10(7H)-one] | 10.8 | < 0.039
CC(C)c1nnc(CN2CCn3nc4c(c3C2=O)CN(C(=O)c2ccc(Cl)c(Cl)c2)[C@H](C)C4)o1 [Example C179] | > 50 | 0.219
Cc1cc(F)ncc1CN1CCn2nc3c(c2C1=O)CN(C(=O)c1ccc(Cl)c(Cl)c1)[C@H](C)C3 [Example C177] | > 50 | 0.136
CCc1noc(C(C)N2CCn3nc4c(c3C2=O)CN(C(=O)c2ccc(Cl)c(Cl)c2)[C@H](C)C4)n1 (stereo partly shown) [Example C222] | > 50 | 0.124
C[C@@H]1Cc2nn3c(c2CN1C(=O)c1ccc(Cl)c(Cl)c1)C(=O)N([C@H](C)c1ccc(C#N)cc1)CC3 (relative stereo) [C88*R] | > 50 | 0.076
COc1ccc(CN2CC(NS(C)(=O)=O)Cn3nc4c(c3C2=O)CN(C(=O)c2ccc(Cl)c(Cl)c2)CC4)cc1 (stereo not shown) [Compound 41, N-{2-(3,4-Dichlorobenzoyl)-10-[(4-methoxyphenyl)methyl]-11-oxo-1,3,4,7,8,9,10,11-octahydro-2H-pyrido[4′,3′:3,4]pyrazolo[1,5-a][1,4]diazepin-8-yl}methanesulfonamide] | > 50 | 0.328
Cc1cc(F)cc2[nH]c(C(=O)N3Cc4c(nn5c4C(=O)N(Cc4ccccn4)CC5)C[C@H]3C)cc12 [Example C109] | 18.9 | 0.013
C[C@@H]1Cc2nn3c(c2CN1C(=O)c1cc2c(F)c(F)c(F)cc2[nH]1)C(=O)N(Cc1ccccn1)CC3 [Example C97] | 9.79 | 0.011
O=C(c1ccc(Cl)c(Cl)c1)N1CCc2nn3c(c2C1)C(=O)N(Cc1cccc2[nH]ccc12)CC3 [Compound 9, 2-(3,4-Dichlorobenzoyl)-9-[(1H-indol-4-yl)methyl]-1,2,3,4,8,9-hexahydropyrido[4′,3′:3,4]-pyrazolo[1,5-a]pyrazin-10(7H)-one] | 16.4 | 0.054
C[C@@H]1Cc2nn3c(c2CN1C(=O)c1ccc(Cl)c(Cl)c1)C(=O)N(Cc1cn(C)nc1C(F)F)CC3 [Example C155] | > 50 | 0.083
C[C@@H]1Cc2nn3c(c2CN1C(=O)c1ccc(Cl)c(Cl)c1)C(=O)N([C@H](C)c1c[nH]nn1)CC3 (single isomer, unassigned) [Compound 31, (3R)-2-(3,4-Dichlorobenzoyl)-3-methyl-9-[(1*R)-1-(1H-1,2,3-triazol-4-yl)ethyl]-1,2,3,4,8,9-hexahydropyrido[4′,3′:3,4]pyrazolo[1,5-a]pyrazin-10(7H)-one] | > 50 | 0.075
COc1cc(CN2CCn3nc4c(c3C2=O)CN(C(=O)c2ccc(Cl)c(Cl)c2)[C@H](C)C4)ccc1OC(F)F [Example C205] |  | 0.04
C[C@@H]1Cc2nn3c(c2CN1C(=O)c1ccc(Cl)c(Cl)c1)C(=O)N(Cc1cccc2c1ccn2C)CC3 [Example C120] |  | 0.047
Cc1ccc(CN2CCn3nc4c(c3C2=O)CN(C(=O)c2ccc(Cl)c(Cl)c2)[C@H](C)C4)c(F)c1 [Example C206] |  | 0.038
C[C@@H]1Cc2nn3c(c2CN1C(=O)c1ccc(Cl)c(Cl)c1)C(=O)N(Cc1ccc(OC(F)F)cc1)CC3 [Compound 13, (3R)-2-(3,4-Dichlorobenzoyl)-9-{[4-(difluoromethoxy)phenyl]methyl}-3-methyl-1,2,3,4,8,9-hexahydropyrido[4′,3′:3,4]pyrazolo[1,5-a]pyrazin-10(7H)-one] |  | 0.055
COc1ccc(CN2CCn3nc4c(c3C2=O)CN(C(=O)c2ccc(Cl)c(Cl)c2)[C@H](C)C4)cc1F [Example C140] |  | 0.032
